Data set [1] relates to injured cartilage explants. It counts as cell-based. An excerpt: (§1) The device comprises a vertical rail that guides a sliding weight from 0.1 kg to 3 kg directly onto a force transducer which is situated at the bottom of the device. A sphere-shaped 2 mm indenter resting on a specimen is located at the bottom of the vertical rail. The indenter is held by a stop screw. The specimen is rigidly attached to a tissue holder underneath the indenter, to avoid side movements, the specimen is rigidly attached to the tissue holder. In this manner, the force transducer transduces a force indirectly onto the specimen. Adjusting the weight of a mass and height from which the mass drops varies the magnitude of the intended impact. For example, a weight mass (e.g., 500 mg) held by a weight holder can be released from a height of e.g., 36 cm and dropped onto the force transducer.

Data set [2] deals with injured cartilage explants, PGE2 synthesis. In words: drop tower design model: PGE2 synthesis. It counts as cell-based, bovine. As to conditions: cocktail of cytokines.
Source text: as §1, with “transducer. […]” for “transducer.”
(§2) In the first method, bovine or human PBMCs were freshly prepared using Ficoll gradient by Lampire Biological Laboratories, Inc. PBMCs in RPMI w/10% FCS at delivery were spun down at 1500 rpm for twenty minutes and the cell pellet was washed twice with 1×PBS to wash off the residual Ficoll. […] Each conditioned medium was assessed for levels of pro-inflammatory cytokines to ensure their secretion from PBMC. […]
PGE2 was measured with STAT-Prostaglandin E2 EIA ELISA kit (Cayman Biochemicals), as described in Example III above. […]

Data set [3] has as its system injured cartilage explants, NO production. In words: drop tower design model: NO production. As to conditions: cocktail of cytokines. It counts as cell-based, bovine.
Source text: as §1, with “For example, a weight mass (e.g., 500 mg) held by a weight holder can be released from a height of e.g., 36 cm and dropped onto the force transducer.” left out
as §2
Nitrate/Nitrite was measured using the Griess reaction (Green L. C. et al., “Analysis of Nitrate, Nitrite, and [15N]nitrate in Biological Fluids,” Anal. Biochem. 126: 131-138 (1982)) with a Nitrate/Nitrite Colorimetric Assay Kit (Cayman Chemicals), as described in Example III above.

The test system of data set [4] is JNK. In words: JNK inhibition. It counts as biochemical.
The subject of data set [5] is LPS-induced TNF human peripheral blood mononuclear cells (hPBMC). In words: LPS-induced TNF in hPBMC. Type of data set: cell-based.
The target of data set [6] is COX2 (Homo sapiens, UniProt P35354). As to the kind of experiment: COX2 inhibition. Type of data set: biochemical.
Data set [7] addresses inactivated p38 MAP kinase (Homo sapiens, UniProt Q16539). As to the kind of experiment: binding to inactivated p38 MAP kinase. As to conditions: read-out: binds to inactivated p38 MAP kinase, Kd.
Data set [8] concerns LPS-induced IL-1 in hPBMC. As to the kind of experiment: LPS-induced IL-1 in hPBMC. Type of data set: cell-based, human.
Data set [9] deals with COX1 (Homo sapiens, UniProt P23219). As to the kind of experiment: COX1 inhibition. Type of data set: biochemical.
Data set [10] addresses p38α MAP kinase (Homo sapiens, UniProt Q16539). As to the kind of experiment: p38α MAP kinase enzyme inhibition. It counts as biochemical.

Here are results for four molecules from patent US8986696B2, “Trans-capsular administration of p38 map kinase inhibitors into orthopedic joints” (DePuy Mitek, Inc., priority 2007, dated 2015).

pIC50, pKd: −log10 of the molar value. Where only a bound is given, the exact number is not on record here.

A word on the pIC50: it is the IC50 on a negative log10 scale, so that one unit is a factor of ten. High values mean a small IC50, low ones a large IC50. In general, pKd refers to the negative decadic logarithm of the Kd, by convention in mol/L.

Chain of COX1 (P23219 24-599): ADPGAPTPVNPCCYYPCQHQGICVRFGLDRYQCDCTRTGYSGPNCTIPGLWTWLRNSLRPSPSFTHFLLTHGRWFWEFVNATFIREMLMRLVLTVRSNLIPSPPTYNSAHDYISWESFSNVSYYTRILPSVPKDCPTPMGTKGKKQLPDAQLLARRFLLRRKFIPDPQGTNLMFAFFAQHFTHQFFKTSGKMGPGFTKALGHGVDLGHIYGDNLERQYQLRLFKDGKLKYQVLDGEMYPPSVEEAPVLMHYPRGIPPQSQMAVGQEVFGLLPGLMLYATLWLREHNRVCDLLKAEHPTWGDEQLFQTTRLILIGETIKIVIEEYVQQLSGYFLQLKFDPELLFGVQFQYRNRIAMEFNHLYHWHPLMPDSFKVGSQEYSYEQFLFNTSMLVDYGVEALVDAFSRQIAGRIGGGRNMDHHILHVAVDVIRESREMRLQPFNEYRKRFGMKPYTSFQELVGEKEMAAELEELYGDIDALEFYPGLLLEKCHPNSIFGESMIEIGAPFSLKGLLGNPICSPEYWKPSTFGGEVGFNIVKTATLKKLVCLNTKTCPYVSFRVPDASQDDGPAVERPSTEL
Chain of p38α MAP kinase (Q16539 whole entry): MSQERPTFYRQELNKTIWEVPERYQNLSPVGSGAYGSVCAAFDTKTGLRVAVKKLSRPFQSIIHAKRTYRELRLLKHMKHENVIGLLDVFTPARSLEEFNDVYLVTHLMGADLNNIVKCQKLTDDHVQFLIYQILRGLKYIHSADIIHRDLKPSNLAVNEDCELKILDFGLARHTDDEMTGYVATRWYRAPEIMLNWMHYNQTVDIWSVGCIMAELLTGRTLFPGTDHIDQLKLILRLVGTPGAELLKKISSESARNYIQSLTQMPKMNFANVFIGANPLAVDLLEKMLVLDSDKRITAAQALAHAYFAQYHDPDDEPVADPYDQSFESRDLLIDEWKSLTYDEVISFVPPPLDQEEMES
Chain of inactivated p38 MAP kinase (Q16539 whole entry): as above
Chain of COX2 (P35354 18-604): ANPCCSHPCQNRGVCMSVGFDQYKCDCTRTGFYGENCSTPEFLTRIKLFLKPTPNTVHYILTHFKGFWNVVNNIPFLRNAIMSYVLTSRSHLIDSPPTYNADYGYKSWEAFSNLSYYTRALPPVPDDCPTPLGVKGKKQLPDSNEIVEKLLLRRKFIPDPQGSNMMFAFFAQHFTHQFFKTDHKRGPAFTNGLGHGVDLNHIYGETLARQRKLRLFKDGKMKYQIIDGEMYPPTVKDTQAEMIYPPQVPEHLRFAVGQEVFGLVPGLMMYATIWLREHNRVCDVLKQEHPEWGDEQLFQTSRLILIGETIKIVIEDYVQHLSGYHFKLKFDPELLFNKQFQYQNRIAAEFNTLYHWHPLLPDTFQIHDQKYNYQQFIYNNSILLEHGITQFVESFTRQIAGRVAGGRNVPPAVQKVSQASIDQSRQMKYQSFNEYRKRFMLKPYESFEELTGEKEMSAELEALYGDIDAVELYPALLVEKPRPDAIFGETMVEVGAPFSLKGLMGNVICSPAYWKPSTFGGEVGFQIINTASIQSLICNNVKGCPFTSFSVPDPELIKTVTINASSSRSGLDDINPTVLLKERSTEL

In the case of `CC(=O)Oc1cccc2c1C(=O)c1c(OC(C)=O)cc(C(=O)O)cc1C2=O` [Diacerein, reference compound], in data set [1], the “cytotoxicity (LDH, words)” value is on record as “tolerant”.

Consider `OCCC#Cc1nc(-c2ccc(F)cc2)c(-c2ccncc2)n1CCCc1ccccc1` [JNJ 3026582 (RWJ 67657), 4-[4-(4-fluorophenyl)-1-(3-phenylpropyl)-5-(4-pyridinyl)-1H-imidazol-2-yl]-3-butyn-1-ol], for which, in data set [2], the “PGE2 synthesis, inhibition” value is on record as “dose-dependently inhibited”. Moreover, in data set [3], the “NO production, inhibition” value was “dose-dependently inhibited”.

Turning to `C[C@H](Nc1nccc(-c2c(-c3ccc(F)cc3)nc3nc(N)ccn23)n1)c1ccccc1` [JNJ 7583979 (RWJ 351958)], the pIC50 in [4] was 7.92.

In the case of `CC(=O)N1CCN(c2c(-c3ccncc3)c(-c3ccc(F)cc3)c(C#N)n2C)CC1` [JNJ 17089540 (RWJ 669307)], the negative-log IC50 (pIC50) in data set [5] was 6.66; in data set [6], less than 5.00; in data set [8], 6.60; in data set [9], less than 5.00; in [10], 5.70. In data set [7], the pKd was 7.00.
